Experimental data published in US10071957B2, “N-substituted benzamides and methods of use thereof” (GENENTECH, INC., priority 2012, dated 2018).

Molecular target: hNaV1.7 (Homo sapiens (Human), UniProt Q15858)
Assay: Competitive binding of tritiated compound to membranes from cells expressing hNav1.7 and the β1 subunit
Conditions: 100 pM [3H]compound, 18 h, room temperature; read-out: NaV1.7 395 Membrane Binding IC50
Method: Tritiated compound binding to membranes isolated from cells that heterologously express hNav1.7 and the β1 subunit
Preparation of membranes containing recombinantly expressed sodium channels: Frozen recombinant cell pellets were thawed on ice and diluted to 4 times the cell pellet weight with ice cold 50 mM Tris HCl, pH 7.4 buffer. The cell suspensions were homogenized on ice using a motorized glass dounce homogeniser. Homogenates were further diluted 8.4 times with ice cold 50 mM Tris HCl, pH 7.4 buffer and then centrifuged at 200×g at 4° C. for 15 min. The supernatants were collected and centrifuged at 10000×g at 4° C. for 50 min. The pellets were then re-suspended in 100 mM NaCl, 20 mM Tris HCl, pH 7.4 buffer containing 1% v/v protease inhibitors (Calbiochem) and re-homogenized on ice. The homogenized membranes were then processed through a syringe equipped with a 26 gauge needle. Protein concentrations were determined by Bradford Assay and the membranes were stored at −80° C.
Radioligand Binding Studies: Saturation experiments. A representative compound of formula (I) was tritiated. Three tritiums were incorporated in place of methyl hydrogens to generate [^3H]compound. Binding of this radioligand was performed in 5 mL borosilicate glass test tubes at room temperature. Binding was initiated by adding membranes to increasing concentrations of [^3H]compound in 100 mM NaCl, 20 mM Tris HCl, pH 7.4 buffer containing 0.01% w/v bovine serum albumin (BSA) for 18 h. Non-specific binding was determined in the presence of 1 μM unlabelled compound. After 18 h, the reactants were filtered through GF/C glass fiber filters presoaked in 0.5% w/v polyethylene imine. Filters were washed with 15 mL ice cold 100 mM NaCl, 20 mM Tris HCl, pH 7.4 buffer containing 0.25% BSA to separate bound from free ligand. [^3H]compound bound to filters was quantified by liquid scintillation counting.
Competitive binding experiments. Binding reactions were performed in 96-well polypropylene plates at room temperature for 18 h. In 360 μL, membranes were incubated with 100 pM [^3H]compound and increasing concentrations of Test Compound. Non-specific binding was defined in the presence of 1 μM unlabelled compound. Reactions were transferred and filtered through 96-well glass fiber/C filter plates presoaked with 0.5% polyethylene imine. The filtered reactions were washed 5 times with 200 μL ice cold buffer containing 0.25% BSA. Bound radioactivity was determined by liquid scintillation counting.
Data Analysis: For saturation experiments, non-specific binding was subtracted from total binding to provide specific binding and these values were recalculated in terms of pmol ligand bound per mg protein. Saturation curves were constructed and dissociation constants were calculated using the single site ligand binding model: Beq=(Bmax*X)/(X+Kd), where Beq is the amount of ligand bound at equilibrium, Bmax is the maximum receptor density, Kd is the dissociation constant for the ligand, and X is the free ligand concentration. For competition studies percent inhibition was determined and IC50 values were calculated using a 4 parameter logistic model (% inhibition=(A+((B−A)/(1+((x/C)^D)))) using XLfit, where A and B are the maximal and minimum inhibition respectively, C is the IC50 concentration and D is the (Hill) slope.

Chain of hNaV1.7 (Q15858 whole entry, looked up): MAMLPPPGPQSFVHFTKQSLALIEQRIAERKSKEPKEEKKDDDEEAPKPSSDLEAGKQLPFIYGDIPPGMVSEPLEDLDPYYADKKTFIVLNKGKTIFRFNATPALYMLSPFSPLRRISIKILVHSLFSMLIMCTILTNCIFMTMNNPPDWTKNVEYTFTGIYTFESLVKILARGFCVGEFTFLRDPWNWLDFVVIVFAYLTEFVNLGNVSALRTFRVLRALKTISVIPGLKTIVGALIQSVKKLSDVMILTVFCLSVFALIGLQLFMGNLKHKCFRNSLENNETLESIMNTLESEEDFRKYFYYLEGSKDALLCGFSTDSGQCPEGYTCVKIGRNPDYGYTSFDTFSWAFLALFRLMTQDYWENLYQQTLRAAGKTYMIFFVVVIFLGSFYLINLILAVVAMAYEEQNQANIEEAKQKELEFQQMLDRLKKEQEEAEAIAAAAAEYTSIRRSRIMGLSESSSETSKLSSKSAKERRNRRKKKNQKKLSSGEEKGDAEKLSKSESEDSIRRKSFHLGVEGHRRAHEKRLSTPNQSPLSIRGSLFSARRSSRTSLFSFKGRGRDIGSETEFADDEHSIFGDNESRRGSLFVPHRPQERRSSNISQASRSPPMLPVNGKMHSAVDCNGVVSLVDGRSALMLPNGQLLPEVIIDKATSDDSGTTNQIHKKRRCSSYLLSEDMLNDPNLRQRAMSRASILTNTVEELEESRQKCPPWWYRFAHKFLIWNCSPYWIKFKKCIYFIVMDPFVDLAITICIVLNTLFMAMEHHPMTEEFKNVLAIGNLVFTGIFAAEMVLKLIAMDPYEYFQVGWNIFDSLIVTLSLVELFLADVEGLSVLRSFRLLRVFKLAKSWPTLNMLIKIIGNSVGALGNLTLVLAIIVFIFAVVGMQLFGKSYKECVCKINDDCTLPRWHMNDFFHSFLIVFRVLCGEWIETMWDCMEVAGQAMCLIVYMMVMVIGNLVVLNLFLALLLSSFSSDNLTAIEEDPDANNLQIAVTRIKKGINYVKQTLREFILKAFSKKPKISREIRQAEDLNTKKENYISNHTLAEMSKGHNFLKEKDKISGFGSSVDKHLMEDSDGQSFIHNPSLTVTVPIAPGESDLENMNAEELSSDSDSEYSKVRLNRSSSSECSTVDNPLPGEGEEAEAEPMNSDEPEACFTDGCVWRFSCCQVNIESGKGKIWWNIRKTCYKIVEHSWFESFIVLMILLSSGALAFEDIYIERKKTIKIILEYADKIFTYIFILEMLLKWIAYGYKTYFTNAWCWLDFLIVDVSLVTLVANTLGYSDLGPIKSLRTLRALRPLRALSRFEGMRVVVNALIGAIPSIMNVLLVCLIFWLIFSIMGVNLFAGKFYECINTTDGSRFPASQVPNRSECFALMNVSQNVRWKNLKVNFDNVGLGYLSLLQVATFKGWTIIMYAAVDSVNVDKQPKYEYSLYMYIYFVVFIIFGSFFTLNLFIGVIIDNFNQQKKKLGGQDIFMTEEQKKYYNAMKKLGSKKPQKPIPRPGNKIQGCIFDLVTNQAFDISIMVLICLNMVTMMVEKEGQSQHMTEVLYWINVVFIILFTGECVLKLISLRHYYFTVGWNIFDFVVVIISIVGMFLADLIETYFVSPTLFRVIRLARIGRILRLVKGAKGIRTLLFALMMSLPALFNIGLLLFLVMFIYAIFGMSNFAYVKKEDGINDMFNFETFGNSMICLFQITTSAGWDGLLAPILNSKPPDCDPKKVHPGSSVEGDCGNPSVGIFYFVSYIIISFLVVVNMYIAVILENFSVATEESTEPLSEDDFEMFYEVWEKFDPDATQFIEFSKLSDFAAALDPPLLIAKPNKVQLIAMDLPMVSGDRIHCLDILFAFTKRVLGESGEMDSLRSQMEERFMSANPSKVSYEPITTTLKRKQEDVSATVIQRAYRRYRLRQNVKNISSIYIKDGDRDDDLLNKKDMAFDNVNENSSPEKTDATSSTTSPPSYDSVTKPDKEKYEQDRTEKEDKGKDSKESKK
Chain of hNaV1.7 (Q07699 whole entry partner, looked up): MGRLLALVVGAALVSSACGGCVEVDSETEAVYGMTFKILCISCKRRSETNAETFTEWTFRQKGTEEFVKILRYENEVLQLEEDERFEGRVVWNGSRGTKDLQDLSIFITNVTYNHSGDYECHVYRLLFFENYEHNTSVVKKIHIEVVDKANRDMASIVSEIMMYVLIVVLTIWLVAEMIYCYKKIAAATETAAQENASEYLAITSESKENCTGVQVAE

Structure (SMILES) | IC50 [nM]
CC(C)Oc1ncc(Oc2cc(F)c(C(=O)NS(=O)(=O)N3CCC3)cc2C2(F)COC2)cc1Cl [Preparation 88] | 44
O=C(NS(=O)(=O)N1CCC1)c1cc(Cl)c(Oc2cnc(OCC(F)(F)F)c(Cl)c2)cc1F [Preparation 93] | 16
CNS(=O)(=O)NC(=O)c1cc(Cl)c(Oc2cnc(Cl)c(Cl)c2)cc1F [Preparation 38, 5-chloro-4-((5,6-dichloropyridin-3-yl)oxy)-2-fluoro-N-(N-methyl-sulfamoyl)benzamide] | 628
NS(=O)(=O)NC(=O)c1cc(Cl)c(Oc2cccc3ccccc23)cc1F [Preparation 53, 5-chloro-2-fluoro-4-(naphthalen-1-yloxy)-N-sulfamoylbenzamide] | 23000
O=C(NS(=O)(=O)N1CCC1)c1cc(C2CC2)c(COc2ccc(Cl)c(Cl)c2)cc1F [Preparation 98] | 9
CC(C)COc1ncc(Oc2cc(F)c(C(=O)NS(=O)(=O)N(C)C)cc2Cl)cc1C(F)(F)F [Preparation 40, 5-chloro-N-(N,N-dimethylsulfamoyl)-2-fluoro-4-((6-iso-butoxy-5-(trifluoro-methyl)pyridin-3-yl)oxy)benzamide] | 71
CN(C)S(=O)(=O)NC(=O)c1cc(Cl)c(COc2cnc(OCC(F)(F)C(F)F)c(Cl)c2)cc1F [Preparation 39, 5-chloro-4-(((5-chloro-6-(2,2,3,3-tetrafluoro-propoxy)pyridin-3-yl)oxy)methyl)-N-(N,N-dimethyl-sulfamoyl)-2-fluoro-benzamide] | 216
CC(C)COc1ncc(Oc2cc(F)c(C(=O)NS(=O)(=O)N(C)C)cc2C#N)cc1Cl [Preparation 65, 4-((5-chloro-6-iso-butoxypyridin-3-yl)oxy)-5-cyano-N-(N,N-dimethylsulfamoyl)-2-fluorobenzamide] | 93
O=C(NS(=O)(=O)N1CCC1)c1cc(C2CC2)c(COc2cc(Cl)cc(OC(F)(F)F)c2)cc1F [Preparation 95] | 2
NS(=O)(=O)NC(=O)c1cc(Cl)c(Oc2cnc(OCC(F)(F)C(F)F)c(Cl)c2)cc1F [Preparation 37, 5-chloro-4-((5-chloro-6-(2,2,3,3-tetrafluoro-propoxy)pyridin-3-yl)oxy)-2-fluoro-N-sulfamoylbenzamide] | 171
O=C(NS(=O)(=O)N1CCC1)c1cc(C2CC2)c(COc2cc(Cl)cc(Cl)c2)cc1F [Preparation 96] | 0.3
CNS(=O)(=O)NC(=O)c1cc(Cl)c(COc2cnc(OC(C)C)c(Cl)c2)cc1F [Preparation 77] | 140
CNS(=O)(=O)NC(=O)c1cc(Cl)c(COc2ccc(OC(F)(F)F)c(Cl)c2)cc1F [Preparation 100] | 43
CC(C)COc1ncc(Oc2cc(F)c(C(=O)NS(=O)(=O)N3CCC3)cc2Cl)cc1Cl [Preparation 46, N-(azetidin-1-ylsulfonyl)-5-chloro-4-((5-chloro-6-iso-butoxypyridin-3-yl)oxy)-2-fluorobenzamide] | 9.2
CC(C)COc1ncc(Oc2cc(F)c(C(=O)NS(N)(=O)=O)cc2C#N)cc1Cl [Preparation 75, 4-((5-chloro-6-iso-butoxypyridin-3-yl)oxy)-5-cyano-2-fluoro-N-sulfamoyl-benzamide] | 290
CN(C)S(=O)(=O)NC(=O)c1cc(Cl)c(Oc2cccc3ccccc23)cc1F [Preparation 52, 5-chloro-N-(N,N-dimethylsulfamoyl)-2-fluoro-4-(naphthalen-1-yloxy)benzamide] | 5200
CN(C)S(=O)(=O)NC(=O)c1cc(Cl)c(OCCc2ccccc2)cc1F [Preparation 58, 5-chloro-N-(N,N-dimethylsulfamoyl)-2-fluoro-4-phenethoxy-benzamide] | 1300
CCCCN(CCCC)S(=O)(=O)NC(=O)c1cc(Cl)c(Oc2cnc(OCC(C)C)c(Cl)c2)cc1F [Preparation 13, 5-chloro-4-((5-chloro-6-isobutoxypyridin-3-yl)oxy)-N-(N,N-dibutylsulfamoyl)-2-fluorobenzamide] | 3640
CC(C)COc1ncc(Oc2cc(F)c(C(=O)NS(=O)(=O)NC(=O)OC(C)(C)C)cc2Cl)cc1Cl [Preparation 29, tert-butyl N-(5-chloro-4-((5-chloro-6-isobutoxy-pyridin-3-yl)oxy)-2-fluorobenzoyl) sulfamoylcarbamate] | 905

Next, values leading:

IC50 [nM] | Structure (SMILES)
20000 | CN(C)S(=O)(=O)NC(=O)c1cc(Cl)c(Oc2cccc3ncccc23)cc1F [Preparation 71, 5-chloro-N-(N,N-dimethylsulfamoyl)-2-fluoro-4-(quinolin-5-yloxy)benzamide]
1900 | Cc1nc2ccc(Oc3cc(F)c(C(=O)NS(=O)(=O)N(C)C)cc3Cl)cc2s1 [Preparation 64, 5-chloro-N-(N,N-dimethylsulfamoyl)-2-fluoro-4-((2-methyl-benzo[d]thiazol-6-yl)oxy)benzamide]
990 | CN(C)S(=O)(=O)NC(=O)c1cc(Cl)c(Oc2ccc3cc[nH]c3c2)cc1F [Preparation 56, 4-((1H-indol-6-yl)oxy)-5-chloro-N-(N,N-dimethyl-sulfamoyl)-2-fluoro-benzamide]
11000 | Cc1cc(Oc2cc(F)c(C(=O)NS(=O)(=O)N(C)C)cc2Cl)cc(C)c1C#N [Preparation 74, 5-chloro-4-(4-cyano-3,5-dimethylphenoxy)-N-(N,N-dimethyl-sulfamoyl)-2-fluoro-benzamide]
20000 | CN(C)S(=O)(=O)NC(=O)c1cc(Cl)c(Oc2ccc(S(C)(=O)=O)cc2)cc1F [Preparation 61, 5-chloro-N-(N,N-dimethylsulfamoyl)-2-fluoro-4-(4-(methyl-sulfonyl)phenoxy) benzamide]
10000 | CN(C)S(=O)(=O)NC(=O)c1cc(Cl)c(Oc2ccc(C#N)cc2)cc1F [Preparation 43, 5-chloro-4-(4-cyano-phenoxy)-N-(N,N-dimethylsulfamoyl)-2-fluorobenzamide]
869 | CN(C)S(=O)(=O)NC(=O)c1cc(Cl)c(Oc2ccc(-c3nccs3)cc2)cc1F [Preparation 44, 5-chloro-N-(N,N-dimethylsulfamoyl)-2-fluoro-4-(4-(thiazol-2-yl)phenoxy) benzamide]
665 | CN(C)S(=O)(=O)NC(=O)c1cc(Cl)c(Oc2cnc(Cl)c(Cl)c2)cc1F [Preparation 35, 5-chloro-4-((5,6-dichloropyridin-3-yl)oxy)-N-(N,N-dimethylsulfamoyl)-2-fluorobenzamide]
3470 | CN(C)S(=O)(=O)NC(=O)c1cc(Cl)c(Oc2ccc(F)c(F)c2)cc1F [Preparation 49, 5-chloro-4-(3,4-difluorophenoxy)-N-(N,N-dimethyl-sulfamoyl)-2-fluorobenzamide]
